Columns and labels:
[1] = Pharmacokinetics of occidiofungin in DOPC or DOPC:DPPG vesicles; assay type: in vivo, mice; details: vesicle formulations, 2.5 mg/kg i.v., mice
Protocol: Entrapment of occidiofungin in vesicles was done using 1,2-Dioleoyl-sn-glycero-3-phosphocholine (DOPC) and 1,2-dipalmitoyl-sn-glycero-3-[phospho-rac-(3-lysyl(1-glycerol))] (DPPG) from Avanti polar lipids. Lipid cake formation and subsequent hydration was done according to the manufacturer's recommendation. Briefly, 20 mg/ml of DOPC in chloroform was placed in a glass beaker and dried by vacuum evaporation to remove the organic solvent. The lipid film formed was hydrated using a 1 μg/μl solution of occidiofungin in 1.5% (2-Hydroxypropyl)-β-cyclodextrin (Alfa Aesar), while maintaining the lipid concentration at 20 mg/ml and the solution was sonicated to form the vesicles. Similarly, DPPG was mixed with DOPC at a ratio of 9:1 (DOPC:DPPG) to make a homogenous lipid mixture at a concentration of 20 mg/ml and the same process of drying and hydration was repeated to make vesicles. Following vesicle formation, estimation of the amount of occidiofungin trapped inside each type of vesicle was done. The mixture containing free and vesicle trapped occidiofungin was passed through a gel filtration column containing Sephadex G-10 beads. The void volume (containing only the vesicle trapped occidiofungin) was collected and occidiofungin extracted using methanol (50% final concentration). Liquid chromatography was done on the extracted sample, and a standard and the concentration of occidiofungin in the extracted sample was estimated by a comparison of peak volumes.
Occidiofungin in DOPC and DOPC-DPPG, at a concentration of 2.5 mg/kg, with ˜1.25 mg/kg entrapped in vesicles, was administered to six female BALB/c mice respectively via intravenous administration. […] The mice were weighed prior to the start of the experiment and every 24 hours post injection (hpi).
Blood was drawn at time points 1 hpi, 3 hpi, 5 hpi, 7 hpi, 9 hpi, 12 hpi, 18 hpi, 24 hpi and 48 hpi. 15 μl of blood was drawn from the lateral saphenous vein of each mouse for the first three time points. Blood from three mice were pooled together and added to 5 μl of 6.4% citric acid to prevent coagulation. From the fourth time point, blood was drawn from the tail vein of the mice. Blood samples were spun down at 13000 rpm for 10 minutes to separate the plasma. The plasma and the blood pellet obtained were stored separately at −20° C. until analysis. The plasma samples were thawed and the occidiofungin was extracted using a final concentration of 50% methanol. The protein precipitate was spun down at 13000 rpm for 10 minutes and the supernatant was used for analysis. Liquid chromatography was done using Acclaim 120 C18 columns (Length: 150 mm; I.D: 2.1 mm; 5 μm) to purify the occidiofungin in the sample. The occidiofungin was then subjected to MS/MS. Fragmentation of the occidiofungin (parent mass 1200 and 1216 Da) was carried out and the fragment of 1068 and 1084 Da m/z, which corresponds to the occidiofungin molecule (A and B forms, respectively) without the xylose sugar, was used for quantification of occidiofungin. A calibration curve constructed using standard concentrations of occidiofungin in plasma was used to analyze the samples obtained from the mice for pharmacokinetics (See FIGS. 6A-6B & 7A-7B).

[2] = system: yeast cells; details: low drug concentrations (1 μg/ml, around 833 nM), Reference 2; cited from earlier work
[3] = Solubility of occidiofungin; assay type: physicochemical

occidiofungin
half-life [1]: ~14 h
morphological change of yeast cells [2]: appeared to shrink in size
O.D.600 after addition of vehicle to the purified dried drug ([3]; 1.5% hydroxy propyl-beta-cyclodextrin in PBS, suggests the drug went into solution): negligible absorbance difference to vehicle without drug
solubility in aqueous buffers ([3]; aqueous buffers): relatively low
